Results as given in PubChem BioAssay (NCI).
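Five compound concentrations were applied to cells in 96-well plates for 48 hours; endpoints were derived by simple linear interpolation of the resulting dose-response curve. Definition used: TGI = concentration required for complete inhibition of growth.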

Tests used:
Assay in all cases: NCI tumour cell line growth inhibition, 48 h
HOP-18 NSCLC = system: HOP-18 NSCLC
A549 NSCLC = system: A549 NSCLC
HT29 colon = system: HT29 colon
SF-539 CNS = system: SF-539 CNS
KM20L2 colon = system: KM20L2 colon
LOX IMVI melanoma = system: LOX IMVI melanoma
SK-OV-3 ovarian = system: SK-OV-3 ovarian
DMS 273 small cell lung = system: DMS 273 small cell lung
SNB-75 CNS = system: SNB-75 CNS
SNB-19 CNS = system: SNB-19 CNS
P388/ADR leukemia = system: P388/ADR leukemia
DMS 114 small cell lung = system: DMS 114 small cell lung
NCI-H460 lung = system: NCI-H460 lung
MOLT-4 leukemia = system: MOLT-4 leukemia
MALME-3M melanoma = system: MALME-3M melanoma
HCT-15 colon = system: HCT-15 colon
OVCAR-3 ovarian = system: OVCAR-3 ovarian
MCF7 breast = system: MCF7 breast
COLO 205 colon = system: COLO 205 colon
XF 498 CNS = system: XF 498 CNS
U251 CNS = system: U251 CNS
UO-31 renal = system: UO-31 renal
NCI-H522 lung = system: NCI-H522 lung
HCC-2998 colon = system: HCC-2998 colon
SK-MEL-2 melanoma = system: SK-MEL-2 melanoma
OVCAR-5 ovarian = system: OVCAR-5 ovarian
SK-MEL-5 melanoma = system: SK-MEL-5 melanoma
HOP-62 NSCLC = system: HOP-62 NSCLC
IGROV1 ovarian = system: IGROV1 ovarian
HCT-116 colon = system: HCT-116 colon
RXF 393 renal = system: RXF 393 renal
P388 leukemia = system: P388 leukemia
CCRF-CEM leukemia = system: CCRF-CEM leukemia
SN12C renal = system: SN12C renal
SN12K1 renal = system: SN12K1 renal
OVCAR-8 ovarian = system: OVCAR-8 ovarian
KM12 colon = system: KM12 colon
SF-295 CNS = system: SF-295 CNS
UACC-257 melanoma = system: UACC-257 melanoma
K-562 leukemia = system: K-562 leukemia
SW-620 colon = system: SW-620 colon
NCI-H23 lung = system: NCI-H23 lung
OVCAR-4 ovarian = system: OVCAR-4 ovarian
EKVX NSCLC = system: EKVX NSCLC
HOP-92 NSCLC = system: HOP-92 NSCLC
SK-MEL-28 melanoma = system: SK-MEL-28 melanoma
SNB-78 CNS = system: SNB-78 CNS
RPMI-8226 leukemia = system: RPMI-8226 leukemia
M19-MEL melanoma = system: M19-MEL melanoma
SF-268 CNS = system: SF-268 CNS
HL-60(TB) leukemia = system: HL-60(TB) leukemia
UACC-62 melanoma = system: UACC-62 melanoma
DLD-1 colon = system: DLD-1 colon
NCI-H226 lung = system: NCI-H226 lung
NCI/ADR-RES ovarian = system: NCI/ADR-RES ovarian

Measured: TGI

COc1cc[n+](C)cc1
> 100 µM: all assays above
